Source: patent US12667104B2, “Herbicidal compositions” (Yissum Research Development Company of the Hebrew …, priority 2019, dated 2026)

Tested on: weeds
Test: Weed control: small scale field experiment (1 m×1 m plots)
Assay type: in vivo
Settings: for herbicidal effect category, 30 days: 30 days after the treatment; for herbicidal effect category, 30 days / herbicidal effect category, 12 days: 1 m×1 m plots, sprayed at 100 liter per hectare, concentration C (% by weight) per composition; for herbicidal effect category, 12 days: 12 days after the treatment; for herbicidal effect (in words): small scale field plots, summary of Table 1
Description: The active components(s), the concentration of the dissolved/suspended active components in the aqueous composition (C, expressed as % by weight of the composition) and the mixing ratios in case of multiple components are tabulated in Table 1.
Compositions 1-A to 1-L, 2-O, 2-P and 3-Q to 3-V were prepared by dissolving water-soluble powders or pellets in water, or adding to water sparingly soluble powders, or combination of both, at the concentrations set out in Table 1, to form sprayable solutions/suspensions.
The herbicidal compositions were sprayed at rate of application of 100 liter per hectare.
The herbicidal effect was determined 5, 12 and 30 days after the treatment. To this end, five categories were defined: • A category: complete control of the weeds was achieved. • B category: severe damage was caused to the weeds. • C category: some damage was caused to the weeds. • D category: minor damage was caused to the weeds. • E category: no damage was caused to the weeds.

Compound | herbicidal effect category, 30 days | herbicidal effect category, 12 days | herbicidal effect (in words)
[Na+].[OH-] [Composition 1-A, NaOH] | B+ |  | 
O=C([O-])O.[Na+] [Composition 1-C, NaHCO3] |  | D+ | 
[K+].[OH-] [Composition 1-D, KOH] | B+ |  | 
O=C([O-])O.[K+] [Composition 1-F, KHCO3] | C+ |  | 
[Ca+2].[OH-].[OH-] [Composition 1-G, Ca(OH)2] | D+ |  | poor activity
O=C([O-])O.O=C([O-])O.[Ca+2] [Composition 1-I, Ca(HCO3)2] |  | D+ | poor activity
